# Measured values from PMC7413254 (Nature Communications, 2020).
# Assays:
# non-expressing oocytes = experiment: cells; assay type: cell-based, Xenopus laevis; conditions: total [3H]CQ transport; for Uptake of [3H]CQ (% non-expressing oocyte control), cis-inhibition: non-expressing oocytes, normalised to the oocyte type control; for Uptake of [3H]CQ (% PfCRTDd2 control), cis-inhibition, non-expressing oocytes: mean ± SEM, SEM
# Summary of the method: (§1)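 Inward transport into oocyte cytosol from pH 5.5 medium models PfCRT efflux from the acidic digestive vacuole. Incubation 1.5 h, 27.5 °C; termination by ice-cold washes; lysate radioactivity counted.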
# PfCRT^3D7 = PfCRT^3D7 (Plasmodium falciparum, UniProt Q8IBZ9); experiment: cell-based; assay type: cell-based; conditions: total [3H]CQ transport; for Uptake of [3H]CQ (% PfCRTDd2 control), cis-inhibition, PfCRT3D7: mean ± SEM, SEM
# Excerpt: The orientation of PfCRT in the parasite’s DV membrane, and also in the oocyte plasma membrane, is such that its N- and C-termini extend into the cytosol. The oocytes were suspended in a reaction buffer adjusted to pH 5.5 to mimic the pH of the DV lumen[1],[2]. In this scenario, the transport of a substrate via PfCRT from the acidic extracellular solution into the oocyte cytosol[15] is analogous to the parasite’s PfCRT-mediated efflux of a substrate from the acidic DV and into the cytosol. Unless specified otherwise, this is the direction in which substrate transport was measured in the oocyte assays.
# Unless specified otherwise, the transport assays were conducted over 1.5 h at 27.5 °C and the reaction buffer was ND96 (96 mM NaCl, 2 mM KCl, 1 mM MgCl2, 1.8 mM CaCl2, 10 mM MES and 10 mM Tris-base) at pH 5.5.
# Ten oocytes were washed twice with the relevant ND96 buffer. […] The assay was terminated by removing the reaction buffer and washing the oocytes with ice-cold ND96 buffer. The oocytes were lysed in 10% (w/v) sodium dodecyl sulfate (SDS) and the radioactivity accumulated within each oocyte was measured with a MicroBeta^2 microplate liquid scintillation analyser (PerkinElmer).
# At least four independent experiments were performed (on different days and using oocytes from different frogs), and within each experiment measurements were made from ten oocytes per treatment.
# PfCRT^Dd2 = PfCRT^Dd2 (Plasmodium falciparum, UniProt Q9N623, A220S/I356T/K76T/M74I/N326S/N75E/Q271E/R371I); experiment: [3H]CQ uptake into Xenopus oocytes, cis-inhibition by unlabelled solute; assay type: cell-based; conditions: for PfCRT-mediated [3H]CQ transport, cis-inhibition (% PfCRTDd2 control): PfCRTDd2 oocytes, background [3H]CQ accumulation subtracted, normalised to oocyte type control; for Uptake of [3H]CQ (% PfCRTDd2 control), cis-inhibition, PfCRTDd2: total [3H]CQ transport, mean ± SEM, SEM
# Summary of the method: as §1
# PfCRT^Ecu1110 = PfCRT^Ecu1110 (Plasmodium falciparum, UniProt Q9N623, A220S/I356L/K76T/N326D); experiment: as above; assay type: cell-based; conditions: for Uptake of [3H]CQ (% PfCRTEcu1110 control), cis-inhibition / PfCRT-mediated [3H]CQ transport, cis-inhibition (% PfCRTEcu1110 control): PfCRTEcu1110 oocytes; for Uptake of [3H]CQ (% PfCRTEcu1110 control), cis-inhibition / Uptake of [3H]CQ (% PfCRTDd2 control), cis-inhibition, PfCRTEcu1110: total [3H]CQ transport; for Uptake of [3H]CQ (% PfCRTEcu1110 control), cis-inhibition: normalised to the oocyte type control; for PfCRT-mediated [3H]CQ transport, cis-inhibition (% PfCRTEcu1110 control): background [3H]CQ accumulation subtracted, normalised to oocyte type control; for [3H]CQ transport (% PfCRTEcu1110 control), cis-inhibition, PfCRTEcu1110: PfCRT-mediated component (background subtracted), sheet title says normalised to PfCRTDd2 control; for [3H]CQ transport (% PfCRTEcu1110 control), cis-inhibition, PfCRTEcu1110 / Uptake of [3H]CQ (% PfCRTDd2 control), cis-inhibition, PfCRTEcu1110: mean ± SEM, SEM
# Summary of the method: as §1
# PfNT1 = target: T1, PfNT1 (Plasmodium falciparum, UniProt Q8IDM6); experiment: cell-based; assay type: cell-based; conditions: SEM
# T1 construct: expressed in transfected cells; host or cells: Xenopus laevis oocytes (stage V-VI), cRNA-injected
# Summary of the method: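 Oocytes (ten per treatment, ≥4 independent frogs/days) were preloaded by injecting VF-6 in 25 nL ND96 at pH 5.0, 5.5, 6.0 or 7.0, or Na^+-free choline buffer, then uptake run 1.5 h, 27.5 °C, ND96 pH 5.5 by default. Internal concentrations assumed ~400 nL oocyte volume.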
# PfCRT [1] = experiment: Influx of VF-6 via PfCRT into the oocyte, solutes tested as potential co-substrates; assay type: cell-based, Plasmodium falciparum; parameters: key: X: Compounds that have been tested as potential co-substrates but are not required for influx of VF-6 via PfCRT into the oocyte; conditions: X marks the solute
# PfCRT [2] = experiment: Test of solutes as potential co-substrates for influx of VF-6 via PfCRT into the oocyte; assay type: cell-based, Plasmodium falciparum; parameters: key: X: Compounds that have been tested as potential co-substrates but are not required for influx of VF-6 via PfCRT into the oocyte; conditions: X = tested
# PfCRT [3] = experiment: Potential co-substrates tested for influx of VF-6 via PfCRT into the oocyte; assay type: cell-based, Plasmodium falciparum; parameters: key: X: Compounds that have been tested as potential co-substrates but are not required for influx of VF-6 via PfCRT into the oocyte
# Sequence of PfCRT^Dd2 (Q9N623 whole entry A220S/I356T/K76T/M74I/N326S/N75E/Q271E/R371I): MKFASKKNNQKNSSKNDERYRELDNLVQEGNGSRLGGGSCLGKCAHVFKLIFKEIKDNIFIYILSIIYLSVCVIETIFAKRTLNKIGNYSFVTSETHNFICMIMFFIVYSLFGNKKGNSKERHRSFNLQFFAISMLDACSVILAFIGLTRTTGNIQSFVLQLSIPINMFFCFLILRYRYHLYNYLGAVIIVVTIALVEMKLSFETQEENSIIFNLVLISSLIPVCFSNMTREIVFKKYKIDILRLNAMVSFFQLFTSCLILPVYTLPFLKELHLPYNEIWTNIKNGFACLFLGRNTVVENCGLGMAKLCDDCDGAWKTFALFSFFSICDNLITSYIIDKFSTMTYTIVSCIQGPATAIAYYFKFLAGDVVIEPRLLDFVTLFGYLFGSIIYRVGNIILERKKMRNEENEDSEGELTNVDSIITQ
# Sequence of PfCRT^Ecu1110 (Q9N623 whole entry A220S/I356L/K76T/N326D): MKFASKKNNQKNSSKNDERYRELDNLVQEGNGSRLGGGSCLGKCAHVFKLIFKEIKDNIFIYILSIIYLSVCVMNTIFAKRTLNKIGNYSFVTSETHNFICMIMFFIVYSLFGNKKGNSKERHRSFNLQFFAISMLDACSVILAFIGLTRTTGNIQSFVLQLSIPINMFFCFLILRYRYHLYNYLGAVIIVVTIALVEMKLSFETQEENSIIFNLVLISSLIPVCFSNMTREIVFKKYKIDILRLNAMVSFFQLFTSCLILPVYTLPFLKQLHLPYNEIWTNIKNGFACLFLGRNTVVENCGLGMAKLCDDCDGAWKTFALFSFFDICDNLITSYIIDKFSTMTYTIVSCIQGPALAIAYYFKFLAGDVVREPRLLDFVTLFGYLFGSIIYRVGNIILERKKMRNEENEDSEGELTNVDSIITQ
# Sequence of PfCRT^3D7 (Q8IBZ9 59-398): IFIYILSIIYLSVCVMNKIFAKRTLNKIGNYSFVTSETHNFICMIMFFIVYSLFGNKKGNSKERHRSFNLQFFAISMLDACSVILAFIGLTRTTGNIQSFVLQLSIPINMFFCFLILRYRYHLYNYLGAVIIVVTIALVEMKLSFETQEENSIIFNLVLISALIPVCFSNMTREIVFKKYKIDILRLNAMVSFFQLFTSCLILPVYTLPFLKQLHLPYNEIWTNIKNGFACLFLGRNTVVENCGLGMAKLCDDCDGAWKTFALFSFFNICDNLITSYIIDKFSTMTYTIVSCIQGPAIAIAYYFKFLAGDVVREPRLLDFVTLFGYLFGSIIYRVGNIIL
# T1 sequence (Q8IDM6 whole entry): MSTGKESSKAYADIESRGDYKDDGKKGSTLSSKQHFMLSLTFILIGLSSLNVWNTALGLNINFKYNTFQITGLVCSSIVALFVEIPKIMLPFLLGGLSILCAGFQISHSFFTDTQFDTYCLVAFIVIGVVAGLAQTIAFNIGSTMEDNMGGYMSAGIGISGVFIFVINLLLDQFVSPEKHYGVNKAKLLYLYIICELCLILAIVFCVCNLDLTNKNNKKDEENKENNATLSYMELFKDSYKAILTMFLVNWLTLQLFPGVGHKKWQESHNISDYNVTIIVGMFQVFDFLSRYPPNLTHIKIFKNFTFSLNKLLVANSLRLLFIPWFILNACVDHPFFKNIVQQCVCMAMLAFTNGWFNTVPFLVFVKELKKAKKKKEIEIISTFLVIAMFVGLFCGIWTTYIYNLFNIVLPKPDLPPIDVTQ
structure (smiles),measurement,setting,value
N[C@@H](CC(=O)O)C(=O)O [L-aspartatic acid],"Uptake of [3H]CQ (% non-expressing oocyte control), cis-inhibition",non-expressing oocytes; [test solute] = 0.5 mM,101 ± 4.8 % non-expressing oocyte control
same,"Uptake of [3H]CQ (% non-expressing oocyte control), cis-inhibition",non-expressing oocytes; [test solute] = 1 mM,97 ± 6.3 % non-expressing oocyte control
same,"Uptake of [3H]CQ (% non-expressing oocyte control), cis-inhibition",non-expressing oocytes; [test solute] = 2 mM,100 ± 4.6 % non-expressing oocyte control
same,"Uptake of [3H]CQ (% PfCRTDd2 control), cis-inhibition, non-expressing oocytes",non-expressing oocytes; [test solute] = 0.5 mM,3.9 ± 0.03 % PfCRTDd2 control
same,"Uptake of [3H]CQ (% PfCRTDd2 control), cis-inhibition, non-expressing oocytes",non-expressing oocytes; [test solute] = 1 mM,3.2 ± 0.08 % PfCRTDd2 control
same,"Uptake of [3H]CQ (% PfCRTDd2 control), cis-inhibition, non-expressing oocytes",non-expressing oocytes; [test solute] = 2 mM,3.4 ± 0.1 % PfCRTDd2 control
same,"Uptake of [3H]CQ (% PfCRT3D7 control), cis-inhibition","PfCRT^3D7; PfCRT3D7 oocytes, [test solute] = 2 mM, normalised to the oocyte type control",100 ± 3.5 % PfCRT3D7 control
same,"Uptake of [3H]CQ (% PfCRTDd2 control), cis-inhibition, PfCRT3D7",PfCRT^3D7; [test solute] = 0.5 mM,3.1 ± 0.07 % PfCRTDd2 control
same,"Uptake of [3H]CQ (% PfCRTDd2 control), cis-inhibition, PfCRT3D7",PfCRT^3D7; [test solute] = 1 mM,2.6 ± 0.08 % PfCRTDd2 control
same,"Uptake of [3H]CQ (% PfCRTDd2 control), cis-inhibition, PfCRT3D7",PfCRT^3D7; [test solute] = 2 mM,2.2 ± 0.06 % PfCRTDd2 control
same,"PfCRT-mediated [3H]CQ transport, cis-inhibition (% PfCRTDd2 control)",PfCRT^Dd2; [test solute] = 0.5 mM,90 ± 5.7 % PfCRTDd2 control
same,"PfCRT-mediated [3H]CQ transport, cis-inhibition (% PfCRTDd2 control)",PfCRT^Dd2; [test solute] = 1 mM,87 ± 6.1 % PfCRTDd2 control
same,"PfCRT-mediated [3H]CQ transport, cis-inhibition (% PfCRTDd2 control)",PfCRT^Dd2; [test solute] = 2 mM,73 ± 3.7 % PfCRTDd2 control
same,"Uptake of [3H]CQ (% PfCRTDd2 control), cis-inhibition, PfCRTDd2",PfCRT^Dd2; [test solute] = 0.5 mM,93 ± 3.6 % PfCRTDd2 control
same,"Uptake of [3H]CQ (% PfCRTDd2 control), cis-inhibition, PfCRTDd2",PfCRT^Dd2; [test solute] = 1 mM,89 ± 5.2 % PfCRTDd2 control
same,"Uptake of [3H]CQ (% PfCRTDd2 control), cis-inhibition, PfCRTDd2",PfCRT^Dd2; [test solute] = 2 mM,75 ± 4.6 % PfCRTDd2 control
same,"Uptake of [3H]CQ (% PfCRTEcu1110 control), cis-inhibition",PfCRT^Ecu1110; [test solute] = 0.5 mM,94 ± 4.5 % PfCRTEcu1110 control
same,"Uptake of [3H]CQ (% PfCRTEcu1110 control), cis-inhibition",PfCRT^Ecu1110; [test solute] = 1 mM,90 ± 3.6 % PfCRTEcu1110 control
same,"Uptake of [3H]CQ (% PfCRTEcu1110 control), cis-inhibition",PfCRT^Ecu1110; [test solute] = 2 mM,83 ± 4.3 % PfCRTEcu1110 control
same,"PfCRT-mediated [3H]CQ transport, cis-inhibition (% PfCRTEcu1110 control)",PfCRT^Ecu1110; [test solute] = 0.5 mM,92 ± 1.4 % PfCRTEcu1110 control
same,"PfCRT-mediated [3H]CQ transport, cis-inhibition (% PfCRTEcu1110 control)",PfCRT^Ecu1110; [test solute] = 1 mM,88 ± 2.7 % PfCRTEcu1110 control
same,"PfCRT-mediated [3H]CQ transport, cis-inhibition (% PfCRTEcu1110 control)",PfCRT^Ecu1110; [test solute] = 2 mM,80 ± 1.3 % PfCRTEcu1110 control
same,"[3H]CQ transport (% PfCRTEcu1110 control), cis-inhibition, PfCRTEcu1110",PfCRT^Ecu1110; [test solute] = 0.5 mM,28 ± 0.7 % PfCRTEcu1110 control
same,"[3H]CQ transport (% PfCRTEcu1110 control), cis-inhibition, PfCRTEcu1110",PfCRT^Ecu1110; [test solute] = 2 mM,24 ± 0.1 % PfCRTEcu1110 control
same,"Uptake of [3H]CQ (% PfCRTDd2 control), cis-inhibition, PfCRTEcu1110",PfCRT^Ecu1110; [test solute] = 0.5 mM,31 ± 1.5 % PfCRTDd2 control
same,"Uptake of [3H]CQ (% PfCRTDd2 control), cis-inhibition, PfCRTEcu1110",PfCRT^Ecu1110; [test solute] = 1 mM,30 ± 1.4 % PfCRTDd2 control
same,"Uptake of [3H]CQ (% PfCRTDd2 control), cis-inhibition, PfCRTEcu1110",PfCRT^Ecu1110; [test solute] = 2 mM,27 ± 1.0 % PfCRTDd2 control
same,"Uptake of [3H]CQ (% PfCRTDd2 control), trans-stimulation, PfNT1",PfNT1,2.4 ± 0.08 % PfCRTDd2 control
same,Compounds that have been tested as potential co-substrates but are not required for influx of VF-6 via PfCRT into the oocyte,PfCRT [1],X
same,Tested as potential co-substrate but not required for influx of VF-6 via PfCRT into the oocyte,PfCRT [2],X
same,Tested as potential co-substrate but not required for influx of VF-6 via PfCRT into the oocyte,PfCRT [3],X
